The values that follow come from US5811463A, “Compositions and method for relaxing smooth muscles” (University of British Columbia, priority 1996, dated 1998).

Data set [1] has as its system mean arterial pressure in conscious rats. The data set is described as follows: Depression of mean arterial pressure in conscious rats in vivo. Also noted: species or system rat (Sprague-Dawley). The settings on record: intravenous bolus. On the procedure:
Likewise, in vivo tests may also be readily developed and utilized in order to determine the efficacy (and therapeutically effective amount) of the transition-metal nitrosyl complexes described above. For example, within one aspect of the present invention, a series of transition-metal nitrosyl complexes were tested in vivo for their ability to reduce the mean arterial blood pressure of conscious rats in vivo. Briefly, as described in greater detail below in Example 6, conscious, unrestrained rats were intravenous bolus injected with the transition-metal nitrosyl complexes. Five of the complexes were determined to dose-dependently reduce mean arterial pressure with maximum depressor effects which ranged from -36 to -59 mm Hg. Maximum depressor effects of sodium nitroprusside and nitroglycerin under similar conditions were -58 and -56 mm Hg, respectively. […] The results of the effects of the transition-metal nitrosyl complexes on the depression of mean arterial pressure in conscious rats in vivo are summarized in Example 5 and Table 1.
(§1) Examples 5-7 present in vitro and in vivo results of the evaluation of the efficiency of the transition-metal nitrosyl complexes in relaxing blood vessels and lowering blood pressure. Sprague-Dawley rats (300-400g) were used for all experiments. Each group consisted of 1-6 rats for the in vivo experiments and 3-6 aortic rings for the in vitro experiments. Each aortic ring was from a different rat.
Example 6 describes the results of the determination of the efficacy of the transition-metal nitrosyl complexes in reducing blood pressure of conscious, unrestrained rats. In these in vivo experiments, the depression of rat arterial pressure was measured as a function of transition-metal nitrosyl complex dose. Dose-response (pressure depression) curves were constructed and the capacities of the transition-metal nitrosyl complexes to reduce arterial pressure were compared and related to nitroglycerin and sodium nitroprusside. The results of these experiments are reported in terms of ED50 (effective dose to produce a 50% pressure depression response) and Emax (maximum decrease in blood pressure) and are summarized in Example 5, Table 1.
(§2) The rats were anaesthetized with halothane (4% in air for induction and 1.5% in air for surgery). A polyethylene cannula (PE50) was inserted into the left iliac artery for the measurement of mean arterial pressure (MAP) by a pressure transducer (P23DB, Gould Statham, Calif.). A PE50 cannula was also inserted into the iliac vein for the administration of the vehicle or a drug. The rats were then put into a small cage and given>6 hr to recover from the effects of anaesthesia and surgery before use. The rats were allowed to move freely during the recovery phase as well as during the conduction of the experiments as described in Wang and Pang, Br. J. Pharmacol. 103:2004-8, 1991. Only one dose-response curve of a metal nitrosyl complex, sodium nitroprusside, nitroglycerin or vehicle (0.9% NaCl solution or dimethylsulfoxide solution) was constructed in each rat. All drugs or vehicle were intravenous bolus injected at dose-intervals of 3-7 min, to allow the recovery of depressor responses, before the injection of the next higher dose.

In data set [2] the test system is phenylephrine pre-constricted rat aortic rings. Briefly: Relaxation of phenylephrine pre-constricted rat aortic rings in vitro. The settings on record: phenylephrine 10^-6 M pre-constricted rat aortic rings; for EC50: read-out: In vitro EC50 (effective concentration to produce a 50% relaxation response). On the set-up: species or system rat (Sprague-Dawley).
Text: As noted above, the present invention also provides methods for relaxing smooth muscle in a warm-blooded animal (e.g., humans, chimps, cows, goats, pigs, dogs, cats, rats or mice) comprising the step of administering to the animal a therapeutically effective amount of a transition-metal nitrosyl complex as described above. Briefly, the efficacy (and therapeutically effective amount) of a particular transition-metal nitrosyl complex may be readily determined by both in vitro and in vivo techniques. See generally Blattner et al., Experiments on Isolated Smooth Muscle Preparations, Hugo Sachs Elektronik KG, 1980 (incorporated herein by reference in its entirety). For example, within one embodiment, a small animal such as a rat, rabbit, or guinea-pig is sacrificed and exsanguinated. The required tissue (e.g., artery, vein, stomach, ileum, jejunum, caecum, colon, uterus, spleen, trachea, seminal vesicle, ductus deferens, or corpus cavernosum) is removed and placed in an oxygenated physiological solution (e.g., Krebs or Tyrode solution). This tissue is then cut such that one end is attached to the bottom of a muscle bath, and the other end to a force-displacement transducer (for example, Grass FT-03-C, Quincy, Mass.) for isometric recording with a physiological recorder (Grass, Model 79G). An appropriate pre-load (0.5 to 10 grams, depending on the tissue) is then applied, and the tissue equilibrated in the bath for one hour prior to the start of the study.
The measurement of smooth muscle contractile response may then be performed essentially as described by Pang and Sutter in Blood Vessels 17:293-301, 1980 (incorporated herein by reference in its entirety). Briefly, a dose-response curve of an agonist (e.g., phenylephrine, norepinephrine) is first obtained by measuring contractile response of the muscle as a function of agonist concentration. Response to the agonist is then measured beginning with the addition of the lowest dose of agonist to the bath. Each dose is equilibrated in the bath for 2 to 6 minutes in order to assure a steady state response, prior to proceeding to the next higher dose.
Measurement of the effectiveness of smooth muscle relaxant compositions may then be determined by measurement of the smooth muscle relaxation response, in a manner analogous to contractile response. See generally Wang, Poon and Pang, J. Pharm. Exp. Ther. 265:112-119, 1993 (incorporated herein by reference in its entirety). Briefly, tissue is first contracted with an agonist such as phenylephrine, usually at a concentration which results in 90% of the tissue's maximum contractile response (referred to EC90). At the steady state phase of the contractile response to the agonist, a cumulative dose-response curve for the smooth muscle relaxant may be determined. For each concentration of relaxant, a steady state is achieved and the relaxation response measured. […] For example, the EC50 of a relaxant is the effective concentration of the relaxant required to relax a pre-contracted muscle to 50% of its maximum contractile response.
as §1
Example 5 presents the results of the evaluation of the efficacy of the transition metal nitrosyl complexes in blood vessel relaxation. In these in vitro experiments, phenylephrine pre-constricted rat aortae were subjected to increasing doses of the transition-metal nitrosyl complexes, and the relaxation of the rat aortae measured. […]

The subject of another data set is conscious rats. Briefly: Toxic dose (convulsion / death) in conscious rats in vivo. On the set-up: species or system rat (Sprague-Dawley); unit not given here. The settings on record: intravenous bolus; for Toxic dose: dose which caused convulsion: footnote a; for Toxic dose: dose which caused neither convulsion nor death: footnote c.
Text: as §1
^a denotes dose which caused convulsion
^b denotes dose which caused death
^c denotes dose which caused neither convulsion nor death.
as §2

The test system of data set [3] is phenylephrine-preconstricted rat aortic rings. Briefly: Tolerance: relaxation of rat aortic rings after pre-incubation with CpCr(NO)2 Cl or nitroglycerin. Also noted: species or system rat (Sprague-Dawley). The settings on record: 1 h.
Text: In addition to determining efficacy of transition-metal nitrosyl complexes in either in vitro or in vivo tests, it is also generally preferably to determine whether the composition induces tolerance. For example, within one embodiment of the invention, induction of tolerance by the transition-metal nitrosyl complex described above may be readily determined by exposing rat aortic rings to a transition-metal nitrosyl complex prior to relaxation determinations. More specifically, as described in greater detail 10 below in Example 7, intact rat aortic rings were pre-incubated with a typical transition- metal nitrosyl complex for one hour prior to examination of its concentration-relaxation effect in phenylephrine-preconstricted conditions. Unlike the relaxation response of nitroglycerin, the relaxation response of the transition-metal nitrosyl complexes was not diminished by pre-exposure of the aortic ring to the complex.
as §1
Example 7 presents the results of pre-exposing the rat aortae to the transition-metal nitrosyl complexes to evaluate the development of tolerance. In these experiments, the rat aortic rings were pretreated with a transition-metal nitrosyl complex prior to the measurement of dose-dependent relaxation as described above in Example 5.
In this study, the vehicles, CpCr(NO)2 Cl (10^-6 M), or nitroglycerin (3×10^-4 M) was added to the baths for 1 h, followed by the washout of drug or vehicle, preconstriction with phenylephrine and the construction of a concentration-relaxation curve of CpCr(NO)2 Cl.

The test system of a further data set is blood vessels. The settings on record: cited from earlier work.
Setting [4] is: pre-incubation nitroglycerin 3×10^-4 M.

Structures are written as SMILES.

The term ED50 denotes the midpoint of the dose-response relation. The Emax is the maximal effect, on the per cent scale that the assay sets.

On to `O=N[O][Cr+]([N]=O)[N]=O.c1cc[cH-]c1` [CpCr(NO)2 (ONO), Nitrito(.eta.^5 -cyclopentadienyl)dinitrosylchromium], for which, in data set [1], the “In vivo ED50 (effective dose to produce a 50% pressure depression response)” value was 0.0015 mg/kg and the “In vivo Emax (maximum decrease in blood pressure)” value is on record as -45 mmHg. For the same molecule, in data set [2], the “In vitro Emax (percent relaxation of phenylephrine-induced contraction)” value is on record as -98% and the EC50 was 100 nM. The “Toxic dose: dose which caused convulsion” value with conscious rats worked out at 1280.

Regarding `C1CCNCC1.O=[N][Cr+][I].c1cc[cH-]c1` [CpCr(NO)(pip)I], in data set [2], the “In vitro Emax (percent relaxation of phenylephrine-induced contraction)” value is on record as -110% and the EC50 came to 450 nM.

`O=[N][Cr+]([Cl])[N]=O.c1cc[cH-]c1` [CpCr(NO)2 Cl]: in data set [1], the “In vivo ED50 (effective dose to produce a 50% pressure depression response)” value stood at 0.0044 mg/kg and the “In vivo Emax (maximum decrease in blood pressure)” value is listed as -42 mmHg. In data set [2], the “In vitro Emax (percent relaxation of phenylephrine-induced contraction)” value was -118% and the EC50 was 110 nM. Further, in data set [3] (pre-incubation CpCr(NO)2 Cl 10^-6 M), the “effect of pre-incubation with CpCr(NO)2 Cl on EC50 and Emax” value is recorded as “did not alter the EC50 or Emax”. Moreover, the “effect of pre-incubation with nitroglycerin on EC50 and Emax” value in data set [3] (pre-incubation nitroglycerin 3×10^-4 M, cross-tolerance) was “did not alter the EC50 or Emax”. For the same molecule, the “Toxic dose: dose which caused convulsion” value in the data set on conscious rats is listed as 2,000.

Take `O=[N][W+].[C-]#[O+].[C-]#[O+].c1cc[cH-]c1` [CpW(NO)(CO)2, dicarbonyl(.eta.^5 -cyclopentadienyl)nitrosyltungsten]: in data set [1] (biphasic denotes depressor followed by pressor response), the “In vivo Emax (maximum decrease in blood pressure), in words” value is given as “biphasic”. In addition, in data set [2], the “In vitro Emax (percent relaxation of phenylephrine-induced contraction)” value was -107% and the EC50 turned out to be 2500 nM. The “Toxic dose: dose which caused convulsion” value in the data set on conscious rats came to 500.

With `O=[N][Fe]1([N]=O)[I][Fe]([N]=O)([N]=O)[I]1` [[Fe(NO)2 I]2, Iodo(dinitrosyl)iron Dimer], in data set [1], the “In vivo ED50 (effective dose to produce a 50% pressure depression response)” value was 0.554 mg/kg and the “In vivo Emax (maximum decrease in blood pressure)” value is reported as -51 mmHg. Moreover, in data set [2], the “In vitro Emax (percent relaxation of phenylephrine-induced contraction)” value is recorded as -108% and the EC50 amounted to 20000 nM. The “Toxic dose: dose which caused neither convulsion nor death” value in the data set with conscious rats is on record as 5120.

On to `O=[N][Mo+]([Cl])[N]=O.c1cc[cH-]c1` [CpMo(NO)2 Cl, chloro(.eta.^5 -cyclopentadienyl)nitrosylmolybdenum], for which, in data set [1], the “In vivo ED50 (effective dose to produce a 50% pressure depression response)” value turned out to be 0.4 mg/kg and the “In vivo Emax (maximum decrease in blood pressure)” value is reported as -59 mmHg. Also, in data set [2], the “In vitro Emax (percent relaxation of phenylephrine-induced contraction)” value was -113% and the EC50 was 17000 nM. Further, the “Toxic dose: dose which caused death” value with conscious rats (footnote b) is recorded as 25,600.

Take `O=[N+]([O-])OCC(CO[N+](=O)[O-])O[N+](=O)[O-]` [Nitroglycerin, glyceryl trinitrate, reference compound]: in data set [1] (Rattus norvegicus, read-out: In vivo ED50 (effective dose to produce a 50% pressure depression response)), the ED50 was determined as 0.2 mg/kg. Moreover, in data set [1], the “In vivo Emax (maximum decrease in blood pressure)” value is recorded as -56 mmHg and the maximum depressor effect is listed as -56 mm Hg. Further, in data set [2], the EC50 is 300 nM. Further, the Emax in data set [2] (read-out: In vitro Emax (percent relaxation of phenylephrine-induced contraction)) was -104%. Also, in data set [3] (setting [4]), the “effect of pre-incubation with nitroglycerin on EC50” value is on record as “EC50 significantly increased” and the “effect of pre-incubation with nitroglycerin on Emax” value is on record as “Emax unaltered”. For the same molecule, the “tolerance on continual exposure” value with blood vessels is “reduction in the ability of these compounds to vasodilate blood vessels”.

On to `O=[N][W+]([Cl])[N]=O.c1cc[cH-]c1` [CpW(NO)2 Cl], for which, in data set [1], the “In vivo ED50 (effective dose to produce a 50% pressure depression response)” value amounted to 2.976 mg/kg and the “In vivo Emax (maximum decrease in blood pressure)” value is -36 mmHg. Moreover, in data set [2], the “In vitro Emax (percent relaxation of phenylephrine-induced contraction)” value is listed as -122% and the EC50 came out at 2000 nM. Also, in the data set on conscious rats, the “Toxic dose: dose which caused neither convulsion nor death” value is listed as 40,000.
